Measured values from patent US20100119599A1 (ARCHER PHARMACEUTICALS, INC., priority 2006, published 2010).

Experiments:
Aβ1-42 = test: Measurement of Aβ1-42 in culture medium of 7W WT APP751 CHO cells by ELISA; assay type: cell-based, Chinese hamster; conditions: CHO cells that overexpress APP751; zero = below the detection limit of the assay
Experimental: (§1) Chinese hamster ovary (CHO) cells, stably transfected with human APP751 (7W WT APP751 CHO cells) were used. See, e.g., Koo and Squazzo, J. Biol. Chem., 269(26): 17386-17389, 1994. The cells were maintained in DMEM medium supplemented with 10% fetal bovine serum and 1× mixture of penicillin/streptomycin/fungizone/glutamine mixture (Cambrex, Md.) geneticin as selecting agent in 75 cm^2 cell culture flasks. The 7W WT APP751 CHO cells were plated in 96-well cell culture plates in quadruplicate, containing 200 microliters of culture medium, for 18 hours at 37° C. and 5% CO2. All test compounds were placed in dimethyl sulfoxide (DMSO) before being added to the cultured confluent 7W WT APP751 CHO cells to a concentration of the test compound of 5 μM. The culture medium was collected and diluted before being assayed by ELISAs for Aβ1-40 at 10-fold dilution and Aβ1-42 at 2-fold dilution, respectively. Concentrations of Aβ1-40 and Aβ1-42, expressed in pg/ml, were determined using commercially available ELISAs (Biosource, Calif.) in a colorimetric assay using labeled antibodies detected spectrophotometrically. For compounds with an identification beginning “RI”, the compounds were tested at a concentration of 10 μM for 24 hours. Control cells were treated with DMSO containing no compound. The percentage reduction in levels of Aβ1-40 and Aβ1-42 as compared to control cells not exposed to the test compounds are reported for the compounds in Tables 1, 2, and 3, supra. An entry of “0” indicates no detectable amount of Aβ1-40 or Aβ1-42 according to the assay conditions. The data in Tables 1, 2, and 3 may be rounded to the nearest 0.1%.

Aβ1-40 = test: Measurement of Aβ1-40 in culture medium of 7W WT APP751 CHO cells by ELISA; assay type: cell-based, Chinese hamster; conditions: CHO cells that overexpress APP751; zero = below the detection limit of the assay
Experimental: as §1
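Also: 5 µM test compound but RI-coded compounds at 10 µM for 24 hours.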

SMILES | Aβ1-42 (% of control) (Aβ1-42) | Aβ1-40 (% of control) (Aβ1-40)
CC1=C(C(=O)Nc2ccccc2)C(c2ccsc2)C(C#N)=C(SCC(=O)Nc2ccccc2C)N1 (stereo not shown) [RI_48] | 100 % of control | 86.5 % of control
CC1=C(C(=O)Nc2ccccc2)C(c2ccsc2)C(C#N)=C(SCC(=O)Nc2ccc(C)cc2)N1 (stereo not shown) [RI_49] | 37.7 % of control | 40.9 % of control
CC1=C(C(=O)Nc2ccccc2)C(c2cccs2)C(C#N)=C(SCC(=O)Nc2ccc(C)cc2)N1 (stereo not shown) [RI_50] | 38.2 % of control | 55.2 % of control
COc1cccc(NC(=O)CSC2=C(C#N)C(c3ccsc3)C(C(=O)Nc3ccccc3)=C(C)N2)c1 (stereo not shown) [RI_51] | 58 % of control | 53.5 % of control
CCCc1ccc(NC(=O)CSC2=C(C#N)C(c3ccsc3)C(C(=O)Nc3ccccc3)=C(C)N2)cc1 (stereo not shown) [RI_52] | 61.6 % of control | 50.3 % of control
CC1=C(C(=O)Nc2ccc(Cl)cc2)C(c2ccsc2)C(C#N)=C(SCC(=O)Nc2cccc(Cl)c2C)N1 (stereo not shown) [RI_53] | 99.2 % of control | 56 % of control
CC1=C(C(=O)Nc2ccc(Cl)cc2)C(c2ccccc2)C(C#N)=C(SCC(=O)Nc2ccc(C(C)C)cc2)N1 (stereo not shown) [RI_54] | 52.6 % of control | 45.89 % of control
COc1cccc(NC(=O)CSC2=C(C#N)C(c3ccccc3)C(C(=O)Nc3ccc(Cl)cc3)=C(C)N2)c1 (stereo not shown) [RI_55] | 40.3 % of control | 48.1 % of control
CC1=C(C(=O)Nc2ccccc2)C(c2cccs2)C(C#N)=C(SCC(=O)Nc2ccccc2C(C)C)N1 (stereo not shown) [RI_56] | 100 % of control | 54.5 % of control
COc1ccccc1NC(=O)CSC1=C(C#N)C(c2ccsc2)C(C(=O)Nc2ccccc2)=C(C)N1 (stereo not shown) [RI_57] | 37.3 % of control | 49.1 % of control
COc1ccc(NC(=O)CSC2=C(C#N)C(c3cccs3)C(C(=O)Nc3ccccc3)=C(C)N2)cc1 (stereo not shown) [RI_58] | 25.6 % of control | 23.1 % of control
COc1ccc(NC(=O)CSC2=C(C#N)C(c3ccsc3)C(C(=O)Nc3ccccc3)=C(C)N2)cc1 (stereo not shown) [RI_59] | 30.6 % of control | 27.7 % of control
CC1=C(C(=O)Nc2ccc(Cl)cc2)C(c2cccs2)C(C#N)=C(SCC(=O)Nc2ccc(C)c(Cl)c2)N1 (stereo not shown) [RI_60] | 71.1 % of control | 59.4 % of control
CCc1ccc(NC(=O)CSC2=C(C#N)C(c3cccs3)C(C(=O)Nc3ccccc3)=C(C)N2)cc1 (stereo not shown) [RI_61] | 51.4 % of control | 68.5 % of control
CCc1ccc(NC(=O)CSC2=C(C#N)C(c3ccsc3)C(C(=O)Nc3ccccc3)=C(C)N2)cc1 (stereo not shown) [RI_62] | 62.4 % of control | 91.6 % of control
CC1=C(C(=O)Nc2ccccc2)C(c2cccs2)C(C#N)=C(SCC(=O)Nc2ccc(C(C)(C)C)cc2)N1 (stereo not shown) [RI_63] | 38.8 % of control | 38.2 % of control
CC1=C(C(=O)Nc2ccccc2)C(c2ccsc2)C(C#N)=C(SCC(=O)Nc2ccc(C(C)(C)C)cc2)N1 (stereo not shown) [RI_64] | 41.3 % of control | 34.1 % of control
CCCCc1ccc(NC(=O)CSC2=C(C#N)C(c3ccsc3)C(C(=O)Nc3ccccc3)=C(C)N2)cc1 (stereo not shown) [RI_65] | 38.1 % of control | 51.7 % of control
CC1=C(C(=O)Nc2ccccc2)C(c2cccs2)C(C#N)=C(SCC(=O)Nc2ccccc2)N1 (stereo not shown) [RI_66] | 23.6 % of control | 20.6 % of control
CC1=C(C(=O)Nc2ccccc2)C(c2ccsc2)C(C#N)=C(SCC(=O)Nc2ccc(C)c(Cl)c2)N1 (stereo not shown) [RI_67] | 51.8 % of control | 42.6 % of control
